Test results published in article PMC7531004, “Discovery of gramicidin A analogues with altered activities by multidimensional screening of a one-bead-one-compound library” (Nature Communications, 2020).
Where a SMILES comes first, the peptide text is derived from it. [ ]: non-standard residue; d: D form. The star is where a group is joined. NHCH2CH2OH = OCCN*; For = O=C*

Tests used:
[1] = tested on: Streptococcus pyogenes SSI-9; test: Antibacterial activity assay of bead-derived peptides (three concentrations); format: cell-based; parameters: key: +++: inhibition by the 640-fold diluted peptide solution; ++: inhibition by the 160-fold diluted solution; +: inhibition by the 40-fold diluted solution; -: no inhibition; settings: S. pyogenes, bead-derived peptide solution, three concentrations
Summary of the method: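 Library peptide stock applied undiluted, 4-fold and 16-fold diluted in DMSO to S. pyogenes SSI-9 (2 × 10^5 CFU) in cation-adjusted Mueller Hinton broth with 5% laked horse blood. After 18 h at 37 °C, growth judged by visible cell precipitation.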

[2] = cell viability/%
Summary of the method: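 P388 cells at 1 × 10^4 cells/mL (final) were exposed to library peptides (stocks diluted 250-fold in RPMI1640/10% FBS) for 92 h at 37 °C, 5% CO2. Viable cells were counted by WST-1/1-methoxy PMS (4 h), absorbance 415 nm, and expressed as cell viability (%).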

[3] = H+/Na+ transport assay of bead-derived peptides (one-point); format: biochemical; parameters: key: relative activity; mean of two control wells = 1.00; settings: bead-derived peptide solution, EYPC/EYPG LUVs;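 also: relative to parent gramicidin A activity set to 1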
Summary of the method: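 Miniaturized 96-well format. LUVs with entrapped pyranine (1.0 mM) were exposed to peptide for 30 min at RT. Intensities were expressed relative to full lysis by Triton X-100 and no treatment, with control-well mean = 1.00.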

CC(C)C[C@@H](NC(=O)[C@H](C)NC(=O)[C@H](NC(=O)[C@H](C)NC(=O)CNC(=O)[C@@H](NC=O)C(C)C)C(C)C)C(=O)N[C@H](C(=O)N[C@@H](C(=O)N[C@@H](Cc1c[nH]c2ccccc12)C(=O)N[C@H](CC(C)C)C(=O)N[C@@H](Cc1c[nH]c2ccccc12)C(=O)N[C@@H](C(=O)N[C@@H](Cc1c[nH]c2ccccc12)C(=O)N[C@@H](C(=O)N[C@@H](Cc1c[nH]c2ccccc12)C(=O)NCCO)[C@H](C)O)C(C)C)[C@H](C)O)C(C)C [compound 3328] (For-VGA[dV]A[dL]V[dT]W[dL]W[dV]W[dT]W-NHCH2CH2OH)
antibacterial activity [1]: - | viability [2]: 100% | H+/Na+ transport activity normalized against the value of 1 (1.00) [3]: 1.08

CC(C)C[C@@H](NC(=O)[C@H](C)NC(=O)CNC(=O)[C@@H](NC=O)C(C)C)C(=O)N[C@@H](C)C(=O)N[C@@H](C(=O)N[C@H](C(=O)N[C@@H](C(=O)N[C@@H](Cc1c[nH]c2ccccc12)C(=O)N[C@H](CC(C)C)C(=O)N[C@@H](Cc1c[nH]c2ccccc12)C(=O)N[C@H](CC(C)C)C(=O)N[C@@H](Cc1c[nH]c2ccccc12)C(=O)N[C@@H](C(=O)N[C@@H](Cc1c[nH]c2ccccc12)C(=O)NCCO)C(C)C)C(C)C)C(C)C)C(C)C [compound 6345] (For-VGA[dL]A[dV]V[dV]W[dL]W[dL]W[dV]W-NHCH2CH2OH)
antibacterial activity [1]: ++ | viability [2]: 57.3% | H+/Na+ transport activity normalized against the value of 1 (1.00) [3]: 1.13

CC(C)C[C@@H](NC(=O)[C@H](C)NC(=O)CNC(=O)[C@@H](NC=O)C(C)C)C(=O)N[C@@H](C)C(=O)N[C@@H](C(=O)N[C@H](C(=O)N[C@@H](C(=O)N[C@@H](Cc1c[nH]c2ccccc12)C(=O)N[C@@H](C(=O)N[C@@H](Cc1c[nH]c2ccccc12)C(=O)N[C@H](CC(C)C)C(=O)N[C@@H](Cc1c[nH]c2ccccc12)C(=O)N[C@@H](C(=O)N[C@@H](Cc1c[nH]c2ccccc12)C(=O)NCCO)C(C)C)C(C)C)[C@H](C)O)C(C)C)C(C)C [compound 2154] (For-VGA[dL]A[dV]V[dT]W[dV]W[dL]W[dV]W-NHCH2CH2OH)
antibacterial activity [1]: - | viability [2]: 100% | H+/Na+ transport activity normalized against the value of 1 (1.00) [3]: 1.09

CNC(=O)C[C@@H](NC(=O)[C@H](Cc1c[nH]c2ccccc12)NC(=O)[C@H](NC(=O)[C@H](Cc1c[nH]c2ccccc12)NC(=O)[C@@H](CC(C)C)NC(=O)[C@@H](NC(=O)[C@@H](CC(C)C)NC(=O)[C@H](C)NC(=O)[C@@H](CC(C)C)NC(=O)[C@H](C)NC(=O)CNC(=O)[C@@H](NC=O)C(C)C)C(C)C)C(C)C)C(=O)N[C@@H](Cc1c[nH]c2ccccc12)C(=O)N[C@@H](C(=O)N[C@@H](Cc1c[nH]c2ccccc12)C(=O)NCCO)[C@H](C)O [compound 3885] (For-VGA[dL]A[dL]V[dL]W[dV]W[dD](NHMe)W[dT]W-NHCH2CH2OH)
antibacterial activity [1]: - | viability [2]: 100% | H+/Na+ transport activity normalized against the value of 1 (1.00) [3]: 1.00

CNC(=O)C[C@@H](NC(=O)[C@@H](NC(=O)[C@H](NC(=O)[C@H](C)NC(=O)[C@H](NC(=O)[C@H](C)NC(=O)CNC(=O)[C@@H](NC=O)C(C)C)C(C)C)C(C)C)C(C)C)C(=O)N[C@@H](Cc1c[nH]c2ccccc12)C(=O)N[C@@H](C(=O)N[C@@H](Cc1c[nH]c2ccccc12)C(=O)N[C@@H](C(=O)N[C@@H](Cc1c[nH]c2ccccc12)C(=O)N[C@H](CC(C)C)C(=O)N[C@@H](Cc1c[nH]c2ccccc12)C(=O)NCCO)C(C)C)C(C)C [compound 11413] (For-VGA[dV]A[dV]V[dD](NHMe)W[dV]W[dV]W[dL]W-NHCH2CH2OH)
antibacterial activity [1]: - | viability [2]: 45.4% | H+/Na+ transport activity normalized against the value of 1 (1.00) [3]: 1.21

CNC(=O)C[C@@H](NC(=O)[C@H](Cc1c[nH]c2ccccc12)NC(=O)[C@H](NC(=O)[C@@H](NC(=O)[C@@H](CC(C)C)NC(=O)[C@H](C)NC(=O)[C@@H](CC(C)C)NC(=O)[C@H](C)NC(=O)CNC(=O)[C@@H](NC=O)C(C)C)C(C)C)C(C)C)C(=O)N[C@@H](Cc1c[nH]c2ccccc12)C(=O)N[C@@H](C(=O)N[C@@H](Cc1c[nH]c2ccccc12)C(=O)N[C@@H](C(=O)N[C@@H](Cc1c[nH]c2ccccc12)C(=O)NCCO)C(C)C)C(C)C [compound 5255] (For-VGA[dL]A[dL]V[dV]W[dD](NHMe)W[dV]W[dV]W-NHCH2CH2OH)
antibacterial activity [1]: - | viability [2]: 100% | H+/Na+ transport activity normalized against the value of 1 (1.00) [3]: 1.25

CC(C)C[C@@H](NC(=O)[C@H](C)NC(=O)CNC(=O)[C@@H](NC=O)C(C)C)C(=O)N[C@@H](C)C(=O)N[C@@H](C(=O)N[C@H](C(=O)N[C@@H](C(=O)N[C@@H](Cc1c[nH]c2ccccc12)C(=O)N[C@H](CC(C)C)C(=O)N[C@@H](Cc1c[nH]c2ccccc12)C(=O)N[C@@H](C(=O)N[C@@H](Cc1c[nH]c2ccccc12)C(=O)N[C@@H](C(=O)N[C@@H](Cc1c[nH]c2ccccc12)C(=O)NCCO)C(C)C)C(C)C)[C@H](C)O)C(C)C)C(C)C [compound 10400] (For-VGA[dL]A[dV]V[dT]W[dL]W[dV]W[dV]W-NHCH2CH2OH)
antibacterial activity [1]: - | viability [2]: 100% | H+/Na+ transport activity normalized against the value of 1 (1.00) [3]: 1.04

CC(C)C[C@@H](NC(=O)[C@H](Cc1c[nH]c2ccccc12)NC(=O)[C@H](NC(=O)[C@H](Cc1c[nH]c2ccccc12)NC(=O)[C@H](NC(=O)[C@H](Cc1c[nH]c2ccccc12)NC(=O)[C@H](NC(=O)[C@@H](NC(=O)[C@H](NC(=O)[C@H](C)NC(=O)[C@H](NC(=O)[C@H](C)NC(=O)CNC(=O)[C@@H](NC=O)C(C)C)C(C)C)C(C)C)C(C)C)[C@H](C)O)C(C)C)C(C)C)C(=O)N[C@@H](Cc1c[nH]c2ccccc12)C(=O)NCCO [compound 5542] (For-VGA[dV]A[dV]V[dT]W[dV]W[dV]W[dL]W-NHCH2CH2OH)
antibacterial activity [1]: - | viability [2]: 100% | H+/Na+ transport activity normalized against the value of 1 (1.00) [3]: 1.17

CC(C)C[C@@H](NC(=O)[C@H](C)NC(=O)[C@H](NC(=O)[C@H](C)NC(=O)CNC(=O)[C@@H](NC=O)C(C)C)[C@H](C)O)C(=O)N[C@H](C(=O)N[C@H](CC(C)C)C(=O)N[C@@H](Cc1c[nH]c2ccccc12)C(=O)N[C@H](CC(C)C)C(=O)N[C@@H](Cc1c[nH]c2ccccc12)C(=O)N[C@H](CC(C)C)C(=O)N[C@@H](Cc1c[nH]c2ccccc12)C(=O)N[C@H](CC(C)C)C(=O)N[C@@H](Cc1c[nH]c2ccccc12)C(=O)NCCO)C(C)C [compound 5618] (For-VGA[dT]A[dL]V[dL]W[dL]W[dL]W[dL]W-NHCH2CH2OH)
antibacterial activity [1]: - | viability [2]: 85.1% | H+/Na+ transport activity normalized against the value of 1 (1.00) [3]: 1.13

CC(C)C[C@@H](NC(=O)[C@H](C)NC(=O)[C@H](NC(=O)[C@H](C)NC(=O)CNC(=O)[C@@H](NC=O)C(C)C)C(C)C)C(=O)N[C@H](C(=O)N[C@H](CC(C)C)C(=O)N[C@@H](Cc1c[nH]c2ccccc12)C(=O)N[C@H](CC(C)C)C(=O)N[C@@H](Cc1c[nH]c2ccccc12)C(=O)N[C@@H](C(=O)N[C@@H](Cc1c[nH]c2ccccc12)C(=O)N[C@@H](C(=O)N[C@@H](Cc1c[nH]c2ccccc12)C(=O)NCCO)C(C)C)C(C)C)C(C)C [compound 9247] (For-VGA[dV]A[dL]V[dL]W[dL]W[dV]W[dV]W-NHCH2CH2OH)
antibacterial activity [1]: + | viability [2]: 6% | H+/Na+ transport activity normalized against the value of 1 (1.00) [3]: 1.02

CC(C)C[C@@H](NC(=O)[C@H](C)NC(=O)CNC(=O)[C@@H](NC=O)C(C)C)C(=O)N[C@@H](C)C(=O)N[C@H](CC(C)C)C(=O)N[C@H](C(=O)N[C@@H](C(=O)N[C@@H](Cc1c[nH]c2ccccc12)C(=O)N[C@H](CC(C)C)C(=O)N[C@@H](Cc1c[nH]c2ccccc12)C(=O)N[C@H](CC(C)C)C(=O)N[C@@H](Cc1c[nH]c2ccccc12)C(=O)N[C@@H](C(=O)N[C@@H](Cc1c[nH]c2ccccc12)C(=O)NCCO)C(C)C)C(C)C)C(C)C [compound 1796] (For-VGA[dL]A[dL]V[dV]W[dL]W[dL]W[dV]W-NHCH2CH2OH)
antibacterial activity [1]: - | viability [2]: 0% | H+/Na+ transport activity normalized against the value of 1 (1.00) [3]: 1.09

CC(C)C[C@@H](NC(=O)[C@H](C)NC(=O)CNC(=O)[C@@H](NC=O)C(C)C)C(=O)N[C@@H](C)C(=O)N[C@H](CC(C)C)C(=O)N[C@H](C(=O)N[C@@H](C(=O)N[C@@H](Cc1c[nH]c2ccccc12)C(=O)N[C@@H](C(=O)N[C@@H](Cc1c[nH]c2ccccc12)C(=O)N[C@H](CC(C)C)C(=O)N[C@@H](Cc1c[nH]c2ccccc12)C(=O)N[C@H](CC(C)C)C(=O)N[C@@H](Cc1c[nH]c2ccccc12)C(=O)NCCO)[C@H](C)O)[C@H](C)O)C(C)C [compound 3858] (For-VGA[dL]A[dL]V[dT]W[dT]W[dL]W[dL]W-NHCH2CH2OH)
antibacterial activity [1]: - | viability [2]: 100% | H+/Na+ transport activity normalized against the value of 1 (1.00) [3]: 1.28

CC(C)C[C@@H](NC(=O)[C@H](C)NC(=O)[C@H](NC(=O)[C@H](C)NC(=O)CNC(=O)[C@@H](NC=O)C(C)C)[C@H](C)O)C(=O)N[C@H](C(=O)N[C@@H](C(=O)N[C@@H](Cc1c[nH]c2ccccc12)C(=O)N[C@@H](C(=O)N[C@@H](Cc1c[nH]c2ccccc12)C(=O)N[C@@H](C(=O)N[C@@H](Cc1c[nH]c2ccccc12)C(=O)N[C@H](CC(C)C)C(=O)N[C@@H](Cc1c[nH]c2ccccc12)C(=O)NCCO)C(C)C)[C@H](C)O)C(C)C)C(C)C [compound 7225] (For-VGA[dT]A[dL]V[dV]W[dT]W[dV]W[dL]W-NHCH2CH2OH)
antibacterial activity [1]: - | viability [2]: 100% | H+/Na+ transport activity normalized against the value of 1 (1.00) [3]: 1.14
